Measurements as given in the supplement of paper PMC10307832.

How the values were obtained:
Assay in all cases: relative viability (nuclei count vs DMSO), 5 days (fraction); higher = more cells survive
[1] = system: NCI-H441
Outline: (§1)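 Relative viability divides the nuclei count in treated wells by that in vehicle wells. Lung cancer cell lines were seeded in 1536-well plates, dosed by pin tool the next day, and fixed and stained after 5 days in one step with final 0.05% Triton X-100, 1% formaldehyde and 1 ug/ml Hoechst. Dosing was a single drug or a fixed anchor-drug dose plus five library-drug doses (not always all listed) in √10 steps, and values are medians of duplicate plates imaged at 4×.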

[2] = system: NCI-H838
Outline: as §1

[3] = system: NCI-H2228
Outline: as §1

[4] = system: NCI-H1666
Outline: as §1

[5] = system: NCI-H520
Outline: as §1

[6] = system: NCI-H1755
Outline: as §1

[7] = system: NCI-H596
Outline: as §1

[8] = system: LK-2
Outline: as §1

[9] = system: NCI-H2085
Outline: as §1

[10] = system: A-427
Outline: as §1

[11] = system: NCI-H358
Outline: as §1

[12] = system: NCI-H1650
Outline: as §1

[13] = system: NCI-H460
Outline: as §1

[14] = system: H3255
Outline: as §1

[15] = system: NCI-H322M
Outline: as §1

[16] = system: SW 1573
Outline: as §1

[17] = system: NCI-H3122
Outline: as §1

[18] = system: NCI-H1355
Outline: as §1

[19] = system: NCI-H1944
Outline: as §1

[20] = system: NCI-H2347
Outline: as §1

[21] = system: EKVX
Outline: as §1

[22] = system: ChaGo-K-1
Outline: as §1

[23] = system: NCI-H650
Outline: as §1

O=C(O)CCCCC(CCSCc1ccccc1)SCc1ccccc1 (stereo not given) [CPI-613] + C[C@@H](Oc1cc(-c2cnn(C3CCNCC3)c2)cnc1N)c1c(Cl)ccc(F)c1Cl [Crizotinib] (partner 1 µM)
relative viability ([1]; first compound 5 µM): 0.685
relative viability ([1]; first compound 15.81 µM): 0.683
relative viability ([1]; first compound 50 µM): 0.635
relative viability ([1]; first compound 158.11 µM): 0.303
relative viability ([1]; first compound 500 µM): 0.343
relative viability ([2]; first compound 5 µM): 0.882
relative viability ([2]; first compound 15.81 µM): 0.833
relative viability ([2]; first compound 50 µM): 0.803
relative viability ([2]; first compound 158.11 µM): 0.598
relative viability ([2]; first compound 500 µM): 0.0806
relative viability ([3]; first compound 5 µM): 0.513
relative viability ([3]; first compound 15.81 µM): 0.481
relative viability ([3]; first compound 50 µM): 0.52
relative viability ([3]; first compound 158.11 µM): 0.203
relative viability ([3]; first compound 500 µM): 0.0468
relative viability ([4]; first compound 5 µM): 0.863
relative viability ([4]; first compound 15.81 µM): 0.995
relative viability ([4]; first compound 50 µM): 1.03
relative viability ([4]; first compound 158.11 µM): 0.236
relative viability ([4]; first compound 500 µM): 0.131
relative viability ([5]; first compound 5 µM): 0.721
relative viability ([5]; first compound 15.81 µM): 0.716
relative viability ([5]; first compound 50 µM): 0.626
relative viability ([5]; first compound 158.11 µM): 0.233
relative viability ([5]; first compound 500 µM): 0.106
relative viability ([6]; first compound 5 µM): 0.795
relative viability ([6]; first compound 15.81 µM): 0.835
relative viability ([6]; first compound 50 µM): 0.822
relative viability ([6]; first compound 158.11 µM): 0.386
relative viability ([6]; first compound 500 µM): 0.142
relative viability ([7]; first compound 5 µM): 0.959
relative viability ([7]; first compound 15.81 µM): 0.966
relative viability ([7]; first compound 50 µM): 1.1
relative viability ([7]; first compound 158.11 µM): 0.589
relative viability ([7]; first compound 500 µM): 0.0472
relative viability ([8]; first compound 5 µM): 0.225
relative viability ([8]; first compound 15.81 µM): 0.191
relative viability ([8]; first compound 50 µM): 0.227
relative viability ([8]; first compound 158.11 µM): 0.219
relative viability ([8]; first compound 500 µM): 0.249
relative viability ([9]; first compound 5 µM): 0.786
relative viability ([9]; first compound 15.81 µM): 0.886
relative viability ([9]; first compound 50 µM): 0.839
relative viability ([9]; first compound 158.11 µM): 0.415
relative viability ([9]; first compound 500 µM): 0.231
relative viability ([10]; first compound 5 µM): 0.89
relative viability ([10]; first compound 15.81 µM): 0.885
relative viability ([10]; first compound 50 µM): 0.754
relative viability ([10]; first compound 158.11 µM): 0.175
relative viability ([10]; first compound 500 µM): 0.126
relative viability ([11]; first compound 5 µM): 0.659
relative viability ([11]; first compound 15.81 µM): 0.606
relative viability ([11]; first compound 50 µM): 0.501
relative viability ([11]; first compound 158.11 µM): 0.104
relative viability ([11]; first compound 500 µM): 0.0191
relative viability ([12]; first compound 5 µM): 0.991
relative viability ([12]; first compound 15.81 µM): 0.854
relative viability ([12]; first compound 50 µM): 0.853
relative viability ([12]; first compound 158.11 µM): 0.579
relative viability ([12]; first compound 500 µM): 0.0088
relative viability ([13]; first compound 5 µM): 0.889
relative viability ([13]; first compound 15.81 µM): 0.892
relative viability ([13]; first compound 50 µM): 0.728
relative viability ([13]; first compound 158.11 µM): 0.115
relative viability ([13]; first compound 500 µM): 0.0085
relative viability ([14]; first compound 5 µM): 0.773
relative viability ([14]; first compound 15.81 µM): 0.894
relative viability ([14]; first compound 50 µM): 0.914
relative viability ([14]; first compound 158.11 µM): 0.831
relative viability ([14]; first compound 500 µM): 0.742
relative viability ([15]; first compound 5 µM): 0.917
relative viability ([15]; first compound 15.81 µM): 0.917
relative viability ([15]; first compound 50 µM): 1
relative viability ([15]; first compound 158.11 µM): 0.996
relative viability ([15]; first compound 500 µM): 1.01
relative viability ([16]; first compound 5 µM): 0.81
relative viability ([16]; first compound 15.81 µM): 0.749
relative viability ([16]; first compound 50 µM): 0.878
relative viability ([16]; first compound 158.11 µM): 0.819
relative viability ([16]; first compound 500 µM): 0.419
relative viability ([17]; first compound 5 µM): 0.234
relative viability ([17]; first compound 15.81 µM): 0.261
relative viability ([17]; first compound 50 µM): 0.281
relative viability ([17]; first compound 158.11 µM): 0.247
relative viability ([17]; first compound 500 µM): 0.0651
relative viability ([18]; first compound 5 µM): 1.09
relative viability ([18]; first compound 15.81 µM): 1.01
relative viability ([18]; first compound 50 µM): 1.07
relative viability ([18]; first compound 158.11 µM): 0.152
relative viability ([18]; first compound 500 µM): 0.136
relative viability ([19]; first compound 5 µM): 1.22
relative viability ([19]; first compound 15.81 µM): 1.02
relative viability ([19]; first compound 50 µM): 1.07
relative viability ([19]; first compound 158.11 µM): 1.06
relative viability ([19]; first compound 500 µM): 0.891
relative viability ([20]; first compound 5 µM): 0.645
relative viability ([20]; first compound 15.81 µM): 0.555
relative viability ([20]; first compound 50 µM): 0.695
relative viability ([20]; first compound 158.11 µM): 0.669
relative viability ([20]; first compound 500 µM): 0.55
relative viability ([21]; first compound 5 µM): 0.885
relative viability ([21]; first compound 15.81 µM): 0.817
relative viability ([21]; first compound 50 µM): 0.891
relative viability ([21]; first compound 158.11 µM): 1.02
relative viability ([21]; first compound 500 µM): 0.952
relative viability ([22]; first compound 5 µM): 1.14
relative viability ([22]; first compound 15.81 µM): 1.05
relative viability ([22]; first compound 50 µM): 0.992
relative viability ([22]; first compound 158.11 µM): 1.04
relative viability ([22]; first compound 500 µM): 0.813
relative viability ([23]; first compound 5 µM): 0.665
relative viability ([23]; first compound 15.81 µM): 0.703
relative viability ([23]; first compound 50 µM): 0.677
relative viability ([23]; first compound 158.11 µM): 0.626
relative viability ([23]; first compound 500 µM): 0.649
